This is an account of results in ChEMBL document CHEMBL2074289, “Inhibition of the human organic anion transporter 1 by the caffeine metabolite 1-methylxanthine” (Biochem Biophys Res Commun, 2004).

In this data set the target is T1, OAT1 (Solute carrier family 22 member 6, SLC22A6) (Homo sapiens, UniProt Q4U2R8).
T1 sequence (Q4U2R8 whole entry): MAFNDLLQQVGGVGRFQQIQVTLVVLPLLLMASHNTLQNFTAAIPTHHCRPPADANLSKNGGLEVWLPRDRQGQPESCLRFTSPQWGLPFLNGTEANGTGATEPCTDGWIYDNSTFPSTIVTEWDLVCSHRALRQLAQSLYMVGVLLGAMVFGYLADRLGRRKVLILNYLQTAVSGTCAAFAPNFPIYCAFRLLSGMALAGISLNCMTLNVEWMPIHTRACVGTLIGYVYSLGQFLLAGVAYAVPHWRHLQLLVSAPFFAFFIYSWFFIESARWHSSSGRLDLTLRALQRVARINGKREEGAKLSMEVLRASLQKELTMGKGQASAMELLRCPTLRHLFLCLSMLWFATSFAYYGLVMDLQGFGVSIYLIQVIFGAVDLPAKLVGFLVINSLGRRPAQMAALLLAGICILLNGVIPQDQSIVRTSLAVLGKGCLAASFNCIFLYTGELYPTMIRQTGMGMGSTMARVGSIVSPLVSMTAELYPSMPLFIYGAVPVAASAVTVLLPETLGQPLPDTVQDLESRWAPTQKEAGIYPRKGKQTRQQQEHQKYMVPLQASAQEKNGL
Briefly: TP_TRANSPORTER: inhibition of 6-Carboxyfluorescein uptake by 1-methylxanthine at a concentration of 500uM in OAT1-expressing cell. Format: functional. Also noted: scale not given: the % may be the effect or the level left. As to conditions: OAT1-expressing cells, probe 6-Carboxyfluorescein; read-out: Activity.

`Cn1c(=O)[nH]c2nc[nH]c2c1=O` [1-METHYLXANTHINE]: the activity at 500 µM worked out at 50%.
